Laboratory results taken from ChEMBL document CHEMBL1127088, “Analogues of platelet activating factor. 8. Antagonists of PAF containing an aromatic ring linked to a pyridinium ring” (J Med Chem, 1993).

Legend:
[1] = target: Platelet-activating factor receptor (Mus musculus) (UniProt Q62035); experiment: Protection of PAF induced lethality in mouse after intraperitoneal dose of 1 mg/kg in saline 0.5 hr prior to an LD90 of PAF; assay type: functional, organism-based; design: dose 1 mg/kg
[2] = test system: Oryctolagus cuniculus; experiment: Protection of PAF induced lethality in rabbit after intraperitoneal dose of 1 mg/kg in saline 0.5 hr prior to an LD90 of PAF; assay type: functional; details: ip

Platelet-activating factor receptor (Mus musculus), sequence (Q62035 whole entry): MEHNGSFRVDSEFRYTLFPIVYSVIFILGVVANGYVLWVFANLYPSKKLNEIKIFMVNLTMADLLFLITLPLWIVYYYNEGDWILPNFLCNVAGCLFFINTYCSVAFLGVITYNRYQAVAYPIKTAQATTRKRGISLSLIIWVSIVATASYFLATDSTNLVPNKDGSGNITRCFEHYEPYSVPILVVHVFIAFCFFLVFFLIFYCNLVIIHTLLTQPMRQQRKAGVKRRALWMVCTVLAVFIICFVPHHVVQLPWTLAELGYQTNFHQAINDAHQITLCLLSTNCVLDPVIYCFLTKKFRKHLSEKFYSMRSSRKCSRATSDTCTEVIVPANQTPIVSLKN

SMILES | Survival [1] | survival at 1 mg/kg [2]
CCCCCCCCCCCCCCOc1ccc(COC(=O)NCc2cccc[n+]2CC)cc1 | 36% | –
CCCCCCCCCCCCCCOc1ccc(COC(=O)N(Cc2cccc[n+]2C)C(C)=O)cc1 | 40% | –
CCCCCCCCCCCCCCOc1ccc(CN(Cc2cc[n+](C)cc2)C(C)=O)cc1 | – | 0%
CCCCCCCCCCCCCCOc1ccc(C(=O)N(Cc2cccc[n+]2CC)C(C)=O)cc1OC | 58% | 33%
CCCCCCCCCCCCCCOc1ccc(C(=O)N(Cc2cc[n+](C)cc2)C(C)=O)cc1C(C)(C)C | 27% | –
CCCCCCCCCCCCCCOc1ccc(C(=O)N(Cc2cccc[n+]2C)C(C)=O)cc1C(C)(C)C | 64% | 100%
CCCCCCCCCCCCCCOc1ccc(C(=O)N(Cc2cccc[n+]2CCC)C(C)=O)cc1OC | 47% | –
CCCCCCCCCCCCCCCCCCNC(=O)Oc1ccc(C(=O)N(Cc2cccc[n+]2C)C(C)=O)cc1C(C)(C)C | 29% | –
CCCCCCCCCCCCCCOc1ccccc1CN(Cc1cccc[n+]1C)C(C)=O | 23% | –
CCCCCCCCCCCCCCOc1ccc(C(=O)N(Cc2cccc[n+]2C)C(C)=O)cc1OC | 58% | 75%
CCCCCCCCCCCCCCOc1ccc(C(=O)N(Cc2ccc[n+](C)c2)C(C)=O)cc1C(C)(C)C | 17% | –
CCCCCCCCCCCCCCOc1ccc(CNC(=O)c2cccc[n+]2CC)cc1 | 36% | –
CCCCCCCCCCCCCCOc1ccc(C(=O)N(Cc2cccc[n+]2C)C(C)=O)cc1 | 27% | –
CCCCCCCCCCCCCCOc1cc(C(=O)N(Cc2cccc[n+]2C)C(C)=O)ccc1OC | 21% | –
CCCCCCCCCCCCCCOc1ccc(C(=O)NC(=O)c2cc[n+](CCC)cc2)cc1OC | 33% | –
CCCCCCCCCCCCCCOc1cccc(OP(=O)([O-])Oc2cccc(C[n+]3csc(C)c3)c2)c1C(=O)OC | 85% | 53%
CCCCCCCCCCCCCCOc1ccc(C(=O)N(Cc2cccc[n+]2C)C(C)=O)cc1OCCCCCCCCCCCCCC | 36% | –
CCCCCCCCCCCCCCOc1ccc(C(=O)NC(=O)c2ccc[n+](CCC)c2)cc1OC | 42% | –
CCCCCCCCCCCCCCOc1ccc(CN(Cc2ccc[n+](C)c2)C(C)=O)cc1 | 38% | –
CCCCCCCCCCCCCCOc1ccc(C(=O)N(Cc2cccc[n+]2Cc2ccccc2)C(C)=O)cc1 | 0% | –
CCCCCCCOc1ccc(C(=O)N(Cc2cccc[n+]2C)C(C)=O)cc1OCCCCCCC | 45% | 0%
CCCCCCCCCCCCCCOc1ccc(CN(Cc2cccc[n+]2CC)C(C)=O)cc1 | 40% | –
CCCCCCCCCCOc1ccc(C(=O)N(Cc2cccc[n+]2C)C(C)=O)cc1C(C)(C)C | 50% | –
